Like-named read-outs stand apart in the source and are kept apart here.
Tests used:
[1] = tested on: HL-60(TB); test: NCI single-dose screen (SRB); type: cell-based; conditions: Homo sapiens; Leukemia HL-60(TB); 10^−5 M; read-out: Growth inhibition percentage
Protocol: (§1) The methodology of the NCI anticancer screening was described in detail elsewhere (http://www.dtp.nci.nih.gov). […] Tested compounds were added to the culture at a single concentration (10^−5 M) and the cultures were incubated for 48 h. End-point determinations were made with a protein binding dye, SRB. Results for each tested compound were reported as the percentage growth of the treated cells when compared to the untreated control cells. The percentage growth was evaluated spectrophotometrically versus controls not treated with test agents. All experiments were repeated three times (Table 1).
Briefly, the protocol was performed on 60 human tumor cell lines derived from different nine neoplastic diseases. […] If the results obtained met selection criteria, then the compound was tested again on all 60 cell lines in 5× 10-fold dilutions with the top dose being 10^−4 M or 150 μg/mL. Detailed methods are described in the Supplementary Materials related to this article. […]
on their site (http://www.dtp.nci.nih.gov). But briefly, the protocol performed at sixty human […]
National Cancer Institute, Bethesda, USA. If the results obtained meet selection criteria, then the […]
10-4 molar or 150 μg/mL. Detailed methods are described in supplementary material related to […]
2. MTT- Cytotoxicity assay method […]
should not exceed 10^6 cells/cm2. Each test should include a blank containing complete medium […]
salt solution without phenol red and serum. Add reconstituted MTT in an amount equal to 10% of the culture medium volume.

[2] = tested on: 786-0; test: NCI single-dose screen (SRB); type: cell-based; conditions: Homo sapiens; Renal Cancer 786-0; 10^−5 M; read-out: Growth inhibition percentage
Protocol: as §1
(§2) Briefly, the protocol was performed on 60 human tumor cell lines derived from different nine neoplastic diseases. […] If the results obtained met selection criteria, then the compound was tested again on all 60 cell lines in 5× 10-fold dilutions with the top dose being 10^−4 M or 150 μg/mL. Detailed methods are described in the Supplementary Materials related to this article.
(§3) on their site (http://www.dtp.nci.nih.gov). But briefly, the protocol performed at sixty human
(§4) National Cancer Institute, Bethesda, USA. If the results obtained meet selection criteria, then the
(§5) 10-4 molar or 150 μg/mL. […]

[3] = tested on: A498; test: NCI single-dose screen (SRB); type: cell-based; conditions: Homo sapiens; Renal Cancer A498; 10^−5 M; read-out: Growth inhibition percentage
Protocol: as §1, §2, §3, §4, §5

[4] = tested on: A549/ATCC; test: NCI single-dose screen (SRB); type: cell-based; conditions: Homo sapiens; Non-Small-Cell Lung Cancer A549/ATCC; 10^−5 M; read-out: Growth inhibition percentage
Protocol: as §1, §2, §3, §4, §5

[5] = tested on: CAKI-1; test: NCI single-dose screen (SRB); type: cell-based; conditions: Homo sapiens; Renal Cancer CAKI-1; 10^−5 M; read-out: Growth inhibition percentage
Protocol: as §1, §2, §3, §4, §5

[6] = tested on: HCC-2998; test: NCI single-dose screen (SRB); type: cell-based; conditions: Homo sapiens; Colon Cancer HCC-2998; 10^−5 M; read-out: Growth inhibition percentage
Protocol: as §1, §2, §3, §4, §5

[7] = tested on: HOP-62; test: NCI single-dose screen (SRB); type: cell-based; conditions: Homo sapiens; Non-Small-Cell Lung Cancer HOP-62; 10^−5 M; read-out: Growth inhibition percentage
Protocol: as §1, §2, §3, §4, §5

[8] = tested on: K-562; test: NCI single-dose screen (SRB); type: cell-based; conditions: Homo sapiens, K562; Leukemia K-562; 10^−5 M; read-out: Growth inhibition percentage
Protocol: as §1, §2, §3, §4, §5

[9] = tested on: KM12; test: NCI single-dose screen (SRB); type: cell-based; conditions: Homo sapiens; Colon Cancer KM12; 10^−5 M; read-out: Growth inhibition percentage
Protocol: as §1, §2, §3, §4, §5

[10] = tested on: LOX IMVI; test: NCI single-dose screen (SRB); type: cell-based; conditions: Homo sapiens; Melanoma LOX IMVI; 10^−5 M; read-out: Growth inhibition percentage
Protocol: as §1, §2, §3, §4, §5

[11] = tested on: MALME-3M; test: NCI single-dose screen (SRB); type: cell-based; conditions: Homo sapiens; Melanoma MALME-3M; 10^−5 M; read-out: Growth inhibition percentage
Protocol: as §1, §2, §3, §4, §5

[12] = tested on: MDA-MB-435; test: NCI single-dose screen (SRB); type: cell-based; conditions: Homo sapiens; Melanoma MDA-MB-435; 10^−5 M; read-out: Growth inhibition percentage
Protocol: as §1, §2, §3, §4, §5

[13] = tested on: MOLT-4; test: NCI single-dose screen (SRB); type: cell-based; conditions: Homo sapiens; Leukemia MOLT-4; 10^−5 M; read-out: Growth inhibition percentage
Protocol: as §1, §2, §3, §4, §5

[14] = tested on: NCI-H322M; test: NCI single-dose screen (SRB); type: cell-based; conditions: Homo sapiens; Non-Small-Cell Lung Cancer NCI-H322M; 10^−5 M; read-out: Growth inhibition percentage
Protocol: as §1, §2, §3, §4, §5

[15] = tested on: NCI-H522; test: NCI single-dose screen (SRB); type: cell-based; conditions: Homo sapiens; Non-Small-Cell Lung Cancer NCI-H522; 10^−5 M; read-out: Growth inhibition percentage
Protocol: as §1, §2, §3, §4, §5

[16] = tested on: OVCAR-4; test: NCI single-dose screen (SRB); type: cell-based; conditions: Homo sapiens; Ovarian Cancer OVCAR-4; 10^−5 M; read-out: Growth inhibition percentage
Protocol: as §1, §2, §3, §4, §5

[17] = tested on: OVCAR-8; test: NCI single-dose screen (SRB); type: cell-based; conditions: Homo sapiens; Ovarian Cancer OVCAR-8; 10^−5 M; read-out: Growth inhibition percentage
Protocol: as §1, §2, §3, §4, §5

[18] = tested on: RPMI-8226; test: NCI single-dose screen (SRB); type: cell-based; conditions: Homo sapiens; Leukemia RPMI-8226; 10^−5 M; read-out: Growth inhibition percentage
Protocol: as §1, §2, §3, §4, §5

[19] = tested on: SF-268; test: NCI single-dose screen (SRB); type: cell-based; conditions: Homo sapiens; CNS Cancer SF-268; 10^−5 M; read-out: Growth inhibition percentage
Protocol: as §1, §2, §3, §4, §5

[20] = tested on: SW-620; test: NCI single-dose screen (SRB); type: cell-based; conditions: Homo sapiens; Colon Cancer SW-620; 10^−5 M; read-out: Growth inhibition percentage
Protocol: as §1, §2, §3, §4, §5

[21] = tested on: T-47D; test: NCI single-dose screen (SRB); type: cell-based; conditions: Homo sapiens, T47D; Breast Cancer T-47D; 10^−5 M; read-out: Growth inhibition percentage
Protocol: as §1, §2, §3, §4, §5

[22] = tested on: TK-10; test: NCI single-dose screen (SRB); type: cell-based; conditions: Homo sapiens; Renal Cancer TK-10; 10^−5 M; read-out: Growth inhibition percentage
Protocol: as §1, §2, §3, §4, §5

[23] = tested on: UACC-62; test: NCI single-dose screen (SRB); type: cell-based; conditions: Homo sapiens; Melanoma UACC-62; 10^−5 M; read-out: Growth inhibition percentage
Protocol: as §1, §2, §3, §4, §5

[24] = tested on: UO-31; test: NCI single-dose screen (SRB); type: cell-based; conditions: Homo sapiens; Renal Cancer UO-31; 10^−5 M; read-out: Growth inhibition percentage
Protocol: as §1, §2, §3, §4, §5

[25] = tested on: leukemia RPMI-8226; test: MTT antiproliferative assay; conditions: mean ± SD
[26] = tested on: leukemia SR; test: MTT antiproliferative assay; conditions: Homo sapiens, read-out: Cytotoxicity IC50 L.SR
[27] = Homo sapiens, RPMI-8226, read-out: Cytotoxicity IC50 RPMI-8226, MTT

Compound | inhibition at 10 µM [1] | inhibition at 10 µM [2] | inhibition at 10 µM [3] | inhibition at 10 µM [4] | inhibition at 10 µM [5] | inhibition at 10 µM [6] | inhibition at 10 µM [7] | inhibition at 10 µM [8] | inhibition at 10 µM [9] | inhibition at 10 µM [10] | inhibition at 10 µM [11] | inhibition at 10 µM [12] | inhibition at 10 µM [13] | inhibition at 10 µM [14] | inhibition at 10 µM [15] | inhibition at 10 µM [16] | inhibition at 10 µM [17] | inhibition at 10 µM [18] | inhibition at 10 µM [19] | inhibition at 10 µM [20] | further results
COC(=O)/C=C1/S/C(=N/NC(=O)c2cc3ccc2CCc2ccc(cc2)CC3)N(C2CC2)C1=O [Compound 3f] | 26.4% | 14.6% | 3.39% | 11.4% | 24.5% | 0% | 0% | 30.5% | 1.32% | 9.41% | 11.3% | 8.06% | 55.6% | 4.43% | 30% | 10.5% | 13.3% | 49.8% | 2.56% | 12.9% | inhibition at 10 µM [21]: 23%; inhibition at 10 µM [22]: 0%; inhibition at 10 µM [23]: 18%; inhibition at 10 µM [24]: 21.7%
COC(=O)C=C1SC(=NNC(=O)c2cc3ccc2CCc2ccc(cc2)CC3)N(c2ccccc2)C1=O [Compound 3a] | 83.6% | 100% | 50.8% | 30.9% | 94.7% | 96.4% | 97% | 73% | 91.5% | 128% | 21.2% | 10.4% | 97% | 31.5% | 58.5% | 70.6% | 59.3% | 121% | 27.5% | 92.6% | inhibition at 10 µM [21]: 138%; inhibition at 10 µM [22]: 84.8%; inhibition at 10 µM [23]: 74.8%; inhibition at 10 µM [24]: 41.5%; IC50 [25, 27]: 1.61 ± 0.0654 µM; IC50 [26]: 1110 ± 68.5 nM
COC(=O)C=C1SC(=Nc2cccnc2)N(NC(=O)c2cc3ccc2CCc2ccc(cc2)CC3)C1=O [Compound 3c, Methyl (E)-2-((E)-3-[2.2]paracyclophanyl)amido-4-oxo-2-(pyridin-3-ylimino)-thiazolidin-5-ylidene)acetate] | 48.6% | 8.52% | 3.59% | 2.04% | 4.78% | 0% | 4% | 20.7% | 7.32% | 9.78% | 0% | 0% | 21.9% | 1.72% | 17.7% | 7.76% | 1.51% | 83% | 3.08% | 10.8% | inhibition at 10 µM [21]: 31.1%; inhibition at 10 µM [22]: 0%; inhibition at 10 µM [23]: 10.7%; inhibition at 10 µM [24]: 21.9%; IC50 [25, 27]: 9.69 µM; IC50 ([25]; read-out: Cytotoxicity IC50 RPMI-8226, MTT): 9.96 ± 0.345 µM; IC50 [26]: 4840 ± 84.2 nM
